Source: patent US5045566A, “Novel imidate insecticides” (ICI Americas Inc., priority 1989, dated 1991)

Key:
Format in all cases: in vivo
[1] = tested on: Housefly [Musca domestica]; test: Housefly contact mortality in dishes (HF), 48 hours; conditions: μg of test compound per 25 female flies
How it was run: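 Dry-film exposure of 25 female houseflies per cage, 48 h; LC50 as μg per 25 flies.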

[2] = tested on: Cabbage Looper [Trichoplusia ni (Hubner)]; test: Cabbage looper leaf dip (CL), 3-5 days; conditions: percent in solution, second-instar larvae
How it was run: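 Compounds in 50-50 acetone-water were applied by dipping squash cotyledons (about 1×1.5 in) for 2-3 s; dried leaves went into petri dishes on moist filter paper with 5 second-instar larvae under high humidity. Mortality was scored after 3-5 days; LC50 from dosage-mortality curves, as percent compound in solution.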

[3] = tested on: Tobacco Budworm [Heliothis virescens (Fabricius)] eggs; test: Tobacco budworm eggs (TBW-E); conditions: percent in solution; 2-day old eggs
How it was run: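 Paper towel patches bearing 2-day old eggs were dipped in acetone solutions of compound, then set in petri dishes over larval rearing medium at 78° F. Mortality was scored once all control eggs had hatched and larvae were feeding. LC50, from dosage-mortality curves, is given as percent compound in solution.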

[4] = tested on: Black Bean Aphid [Aphis fabae (Scop.)]; test: Black bean aphid spray test on nasturtium (BBA), 48 hours; conditions: percent of test compound in sprayed solution
How it was run: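 LC50, given as percent test compound in the sprayed liquid, was calculated from dosage-mortality curves using concentrations from 0.05% downward. Sprays in 50:50 acetone-water went to runoff on ~5 cm nasturtiums carrying 25-50 aphids of mixed ages, one day after infestation. Deaths were counted 48 h later under greenhouse conditions.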

| SMILES | LC50 HF [1] [µg] | LC50 CL [2] [%] | LC50 TBW E (eggs) [3] [%] | LC50 BBA [4] [%] |
| --- | --- | --- | --- | --- |
| C=CCOc1cccc(COC(=Nc2cccc(C(F)(F)F)c2)C(C)C)c1 [Compound 480] | > 100 | 0.01 | > 0.1 | > 0.05 |
| CC(C)C(=Nc1ccc(F)cc1)OCc1cccc(Oc2ccc(F)c(F)c2)c1 [Compound 265] | 10 | 0.00025 | 0.07 | > 0.05 |
| CC(C)C(=Nc1c(Cl)cc(Cl)cc1Cl)OCc1cccc(Oc2ccccc2)c1 [Compound 19] | > 100 | < 0.1 | > 0.1 | 0.05 |
| CCOC(=O)c1ccc(N=C(OCc2cccc(Oc3ccccc3)c2)C(C)C)cc1Cl [Compound 104] | > 100 | 0.004 | > 0.1 | 0.003 |
| CC(C)C(=Nc1ccc2c(c1)OC(C)(C)O2)OCc1cccc(Oc2ccc(Cl)cc2)n1 [Compound 468] | 50 | > 0.1 | > 0.1 | 0.05 |
| CC(C)C(=Nc1ccc2c(c1)OCO2)OCc1cccc(Oc2ccc(C(F)(F)F)cc2)c1 [Compound 246] | 60 | 0.004 | > 0.1 | > 0.05 |
| Cc1cc(Cl)ccc1N=C(OCc1cccc(Oc2ccccc2)c1)C(C)(C)C [Compound 109] | > 100 | 0.002 | > 0.1 | > 0.05 |
| CC(C)C(=Nc1cccc(I)c1)OCc1cccc(Oc2ccccc2)c1 [Compound 136] | 9 | 0.004 | 0.08 | 0.002 |
| CC(C)C(=Nc1cc(Cl)c(Cl)cc1Cl)OCc1cccc(Oc2ccccc2)c1 [Compound 18] | > 100 | 0.008 | 0.09 | 0.003 |
| CCC(=Nc1ccc(CC)cc1)OCc1cccc(Oc2ccccc2)c1 [Compound 157] | 25 | 0.009 | > 0.1 | 0.002 |
| CC(C)C(=Nc1ccc(C#N)c(F)c1)OCc1cccc(Oc2ccc(F)cc2)c1 [Compound 222] | 32 | 0.0015 | > 0.1 | 0.01 |
| COc1ccc(OC)c(N=C(OCc2cccc(Oc3ccccc3)c2)C(C)C)c1Cl [Compound 100] | 100 | 0.05 | > 0.1 | > 0.05 |
| CC(C)C(=Nc1ccc(Br)c(Br)c1)OCc1cccc(Oc2ccc(F)cc2)c1 [Compound 251] | 25 | 0.0005 | 0.06 | 0.001 |
| Cc1cccc(N=C(OCc2cccc(Oc3ccccc3)c2)C(C)C)c1C [Compound 249] | 36 | 0.0025 | 0.035 | 0.0003 |
| CC(C)(C)C(=Nc1cccc([N+](=O)[O-])c1)OCc1cccc(Oc2ccccc2)c1 [Compound 175] | > 100 | 0.018 | > 0.1 | > 0.05 |
| CSc1ccc(N=C(OCc2cccc(Oc3ccccc3)c2)C(Cl)Cl)cc1 [Compound 141] | 35 | < 0.1 | > 0.1 | 0.006 |
| COc1cc(N=C(OCc2cccc(Oc3ccccc3)c2)C(C)C)cc(C(F)(F)F)c1 [Compound 76] | 20 | 0.002 | 0.05 | 0.003 |

| SMILES | LC50 HF [1] [µg] | LC50 CL [2] [%] | LC50 TBW E (eggs) [3] [%] | LC50 BBA [4] [%] |
| --- | --- | --- | --- | --- |
| COc1ccc(C)cc1N=C(OCc1cccc(Oc2ccccc2)c1)C(C)C [Compound 150] | 89 | 0.01 | > 0.1 | 0.03 |
| CC(C)C(=Nc1ccc2c(c1)OCO2)OCc1cc(Oc2ccc(F)cc2)ccc1Cl [Compound 274] | > 100 | 0.1 | > 0.1 | > 0.05 |
| Cc1ccc(Cl)cc1N=C(OCc1cccc(Oc2ccccc2)c1)C(C)C [Compound 263] | > 100 | 0.05 | > 0.1 | > 0.05 |
| CC(C)C(=Nc1ccc(C#N)cc1)OCc1cccc(Oc2ccc(F)cc2)c1 [Compound 227] | 10 | 0.0015 | 0.1 | 0.01 |
| CC(C)C(=Nc1cc(F)ccc1F)OCc1cccc(Oc2ccccc2)c1 [Compound 56] | 91 | 0.01 | > 0.05 | 0.03 |
| CC(C)C(=Nc1cc(C(F)(F)F)cc(C(F)(F)F)c1)OCc1cccc(Oc2ccccc2)c1 [Compound 78] | > 100 | 0.0025 | > 0.1 | 0.03 |
| CC(C)C(=Nc1ccc(Br)c(Br)c1)OCc1cccc(Oc2ccccc2)c1 [Compound 252] | 34 | 0.0035 | 0.04 | 0.002 |
| Clc1cccc(N=C(OCc2cccc(Oc3ccccc3)c2)C2CC2)c1 [Compound 24] | 25 | 0.005 | 0.1 | 0.01 |
| CC(C)(Cl)C(=Nc1ccc(F)c(Cl)c1)OCc1cccc(Oc2ccc(F)cc2)c1 [Compound 224] | > 100 | 0.001 | > 0.1 | 0.05 |
| CCOC(=O)c1cccc(N=C(OCc2cccc(Oc3ccccc3)c2)C(C)(C)C)c1 [Compound 168] | > 100 | 0.1 | > 0.1 | > 0.05 |
| COc1cc(N=C(OCc2cccc(Oc3ccccc3)c2)C(C)C)c(OC)cc1Cl [Compound 99] | > 100 | 0.016 | > 0.1 | > 0.05 |
| COc1ccc(Cl)cc1N=C(OCc1cccc(Oc2ccccc2)c1)C(C)C [Compound 264] | > 100 | 0.03 | > 0.1 | > 0.05 |
| COc1ccc(Oc2cccc(COC(=Nc3ccc(Cl)c(Cl)c3)C(C)C)c2)cc1 [Compound 223] | 43 | 0.008 | > 0.1 | 0.003 |
| Cc1cc(Br)ccc1N=C(OCc1cccc(Oc2ccccc2)c1)C(C)C [Compound 133] | 66 | 0.005 | 0.1 | 0.003 |
| COC(C)C(=Nc1ccc(Cl)cc1)OCc1cccc(Oc2ccccc2)c1 (stereo not drawn) [Compound 22] | 15 | 0.004 | 0.08 | 0.01 |
| CC(C)C(=Nc1ccc(F)c(F)c1)OCc1cccc(Oc2ccc(F)cc2F)c1 [Compound 214] | 19 | 0.0003 | 0.04 | 0.01 |
